Experimental data: patent US10548313B2, “Acetyl-CoA carboxylase modulators” (Monsanto Technology LLC, priority 2013, dated 2020)
Like-named read-outs stand apart in the source and are kept apart here.

Tests used:
Botrytis cinerea = test: Fungal growth inhibition assay, Botrytis cinerea; type: cell-based; conditions: 48 hours, read-out: B. cinerea % growth inhibition at 48 hours
Text: (§1) Spores were isolated from previously sub-cultured plates of Botrytis cinerea, Phytophthora capsici, Fusarium moniliforme, Fusarium viguliforme, Collectotrichum graminicola, and Diplodia maydis. All spores were filtered and collected in a sterile glass bowl to isolate the spores from the mycelia. The isolation and sub-culture plate condition for each pathogen is described below.
Spore isolation for B. cinerea: A 2-3 week old V8 (17%)+CaCO3 (3 g/L)+20 g agar plate was removed from room temperature and the mycelia were treated with 5-10 ml of filter sterilized Triton X 100 (.05%). The mycelia were scraped to re-suspend the spores. The spores were then collected in a sterile filter bowl containing a fluted piece of filter paper and poured into a conical tube.
(§2) After spore isolation, pathogen spores were counted on a hemocytometer to calculate the spores/ml. In 17% V8 liquid media containing 3 g/L CaCO3, isolated spores were diluted to individual concentrations based on the growth curves at 48 hours of each pathogen. The spore concentrations for each pathogen were as follows: B. cinerea—10,000 sp/ml; P. capsici—300 sp/ml; F. monliforme—500 sp/ml; F. virguliforme—500 sp/ml; C. graminicola—3,000 sp/ml; and D. maydis—3,000 sp/ml.
(§3) Chemistry stocks were dissolved in DMSO at 2.5 mg/ml. Chemistry was diluted in a 96-well stock plate in five-fold dilutions to obtain a final concentration of 50, 10, and 2 ppm in vitro. The final concentration of the positive control after the five-fold dilutions was as follows: soraphen—0.5, 0.1, and 0.02 ppm. Negative controls on each plate included 2% DMSO, water containing spores and media, and a blank for background subtraction.
(§4) In a 96-well plate the spore solution, chemistries, and controls were combined to make the final solution concentrations mentioned above. Upon addition of the chemistry, an OD600 reading was done to assess chemical precipitation. The 96-well plates were incubated in plastic tubs containing wet paper towels under the following conditions, 25° C. in the dark for P. capsici and B. cinerea or 26° C. with light/dark cycle for C. graminicola, D. maydis, F. virguliforme, F. monliforme. Plate readings were repeated at 24 and 48 hrs. Visual ratings were performed at 24 and 48 hrs to check for precipitation and confirm efficacy. Visual and OD600 ratings of the chemistry at 48 hours were compared to the 2% DMSO control to determine the percent of pathogen growth inhibition.

[1] = target: Ustilago maydis acetyl CoA carboxylase (ACCase) (Mycosarcoma maydis (Ustilago maydis), UniProt A0A0D1DYD5); test: ACCase enzymatic assay (coupled PK/LDH, NADH OD340); type: biochemical
Sequence of Ustilago maydis acetyl CoA carboxylase (ACCase) (A0A0D1DYD5 1-2185): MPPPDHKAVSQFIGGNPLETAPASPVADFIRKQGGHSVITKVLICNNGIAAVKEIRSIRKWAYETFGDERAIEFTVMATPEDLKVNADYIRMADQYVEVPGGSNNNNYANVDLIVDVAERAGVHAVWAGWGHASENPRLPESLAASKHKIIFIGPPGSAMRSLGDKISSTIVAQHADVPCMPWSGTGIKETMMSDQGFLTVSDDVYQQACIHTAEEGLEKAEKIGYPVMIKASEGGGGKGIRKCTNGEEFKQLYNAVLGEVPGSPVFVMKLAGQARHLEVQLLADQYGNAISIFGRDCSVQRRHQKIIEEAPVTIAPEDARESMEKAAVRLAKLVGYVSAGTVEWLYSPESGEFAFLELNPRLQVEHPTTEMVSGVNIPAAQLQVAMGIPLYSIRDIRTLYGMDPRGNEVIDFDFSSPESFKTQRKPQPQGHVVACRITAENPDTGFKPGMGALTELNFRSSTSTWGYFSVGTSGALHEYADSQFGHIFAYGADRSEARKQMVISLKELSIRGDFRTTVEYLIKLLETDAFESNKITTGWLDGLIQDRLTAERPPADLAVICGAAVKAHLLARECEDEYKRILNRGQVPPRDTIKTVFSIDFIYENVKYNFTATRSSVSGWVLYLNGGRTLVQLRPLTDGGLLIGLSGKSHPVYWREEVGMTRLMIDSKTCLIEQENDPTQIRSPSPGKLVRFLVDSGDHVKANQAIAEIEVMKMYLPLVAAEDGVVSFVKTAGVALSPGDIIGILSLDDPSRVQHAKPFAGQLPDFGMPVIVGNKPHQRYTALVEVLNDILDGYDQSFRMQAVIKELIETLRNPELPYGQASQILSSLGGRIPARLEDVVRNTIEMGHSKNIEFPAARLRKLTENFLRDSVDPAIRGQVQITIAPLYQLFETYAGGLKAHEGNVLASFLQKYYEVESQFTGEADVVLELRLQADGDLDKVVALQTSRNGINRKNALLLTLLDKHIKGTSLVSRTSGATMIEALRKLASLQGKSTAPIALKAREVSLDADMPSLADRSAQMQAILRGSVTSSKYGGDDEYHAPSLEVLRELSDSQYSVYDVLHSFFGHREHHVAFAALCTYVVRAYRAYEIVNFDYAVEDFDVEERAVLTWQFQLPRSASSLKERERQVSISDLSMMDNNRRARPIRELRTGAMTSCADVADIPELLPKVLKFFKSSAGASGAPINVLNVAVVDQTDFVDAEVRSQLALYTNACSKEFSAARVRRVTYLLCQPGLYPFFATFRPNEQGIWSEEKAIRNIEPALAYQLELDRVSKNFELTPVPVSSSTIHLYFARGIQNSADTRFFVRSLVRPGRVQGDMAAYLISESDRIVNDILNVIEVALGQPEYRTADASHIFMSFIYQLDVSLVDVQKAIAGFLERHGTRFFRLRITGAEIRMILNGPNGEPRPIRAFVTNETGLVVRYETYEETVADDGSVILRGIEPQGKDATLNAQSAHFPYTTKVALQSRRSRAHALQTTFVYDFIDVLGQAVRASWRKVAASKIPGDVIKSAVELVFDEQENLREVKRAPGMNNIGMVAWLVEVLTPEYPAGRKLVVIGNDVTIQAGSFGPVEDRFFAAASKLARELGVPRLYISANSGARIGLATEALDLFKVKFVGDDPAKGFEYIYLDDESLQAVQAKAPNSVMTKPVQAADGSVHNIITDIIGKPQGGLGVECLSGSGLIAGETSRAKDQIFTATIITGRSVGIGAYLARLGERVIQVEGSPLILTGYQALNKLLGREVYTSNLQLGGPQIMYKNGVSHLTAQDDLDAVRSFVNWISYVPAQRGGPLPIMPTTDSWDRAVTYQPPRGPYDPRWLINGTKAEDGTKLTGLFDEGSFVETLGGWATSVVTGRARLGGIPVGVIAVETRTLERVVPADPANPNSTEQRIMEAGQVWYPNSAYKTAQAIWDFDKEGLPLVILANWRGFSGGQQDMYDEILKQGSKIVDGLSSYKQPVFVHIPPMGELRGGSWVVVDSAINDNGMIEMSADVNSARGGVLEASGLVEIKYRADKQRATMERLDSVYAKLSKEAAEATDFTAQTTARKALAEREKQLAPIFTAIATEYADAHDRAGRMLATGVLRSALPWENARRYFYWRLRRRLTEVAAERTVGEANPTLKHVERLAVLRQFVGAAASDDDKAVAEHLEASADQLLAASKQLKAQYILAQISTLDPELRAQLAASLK
Protocol: Ustilago maydis acetyl CoA carboxylase (ACCase) was cloned, expressed, and purified as described (Weatherly et al, Biochem. J., 2004) and the test compounds were tested in a 96-well plate format. Primary in vitro screening consisted of obtaining dose response data at 100, 33, 10, and 1 μM inhibitor. Actives in the primary screen were re-tested to establish IC50 values.
Direct detection of the conversion of acetyl CoA to malonyl CoA by ACCase was not feasible, but during this process ATP is converted to ADP which allowed for detection through a standard reaction coupling with ADP recycling to the oxidation of NADH. Thus, ACCase activity was measured via kinetic OD340 measurements of the conversion of NADH to NAD in a coupled reaction involving the conversion of phosphoenolpyruvate (PEP) to lactate.
The complete 200 ul reaction mixture contained 52.5 mM HEPES (pH8), 2.625 mM MgCl2, 1 mM ATP, 0.525 mM DTT, 11 mM NaHCO3, 1% DMSO with or without inhibitor, 1× pyruvate kinase/lactate dehydrogenase (PK/LDH), 0.3 mM NADH, 0.5 mM PEP, and 5 μg ACCase. The reactions were incubated at 30° C. for 10 minutes and then initiated by the addition of 0.33 mM acetyl CoA. The initiated reactions were read immediately via plate reader at OD340 and kinetic readings were acquired every 20 s for 15 minutes while keeping the temperature at 30° C.
A slope of the kinetic curve was determined by using the 2 to 7 minute data which was then calculated as percent inhibition relative to the no inhibitor control.
The primary screens were conducted in duplicate and the IC50's conducted in triplicate. Averages were reported along with standard deviation calculation to generate error bars.
Each plate contained its own controls and consisted of a DMSO only control, 5-fold titration series of soraphen from 2 μM to 3.2 nM, and an ADP coupled reaction control.

Diplodia maydis = test: Fungal growth inhibition assay, Diplodia maydis; type: cell-based; conditions: 48 hours, read-out: D. maydis % growth inhibition at 48 hours
Protocol: as §1
Spore isolation for D. maydis: A 3-4 week old PDA (pre-mix) plate was removed from 26° C. incubator with a light/dark 12 hour cycle and the mycelia were treated with 6-7 ml of sterile distilled water, scraped into a sterile petri dish, and smashed to open the pycnidia. The spores were then collected in a sterile filter bowl containing a fluted piece of filter paper and poured into a conical tube.
as §2, §3, §4

Phytophthora capsici = test: Fungal growth inhibition assay, Phytophthora capsici; type: cell-based; conditions: 48 hours, read-out: P. capsici % growth inhibition at 48 hours
Text: as §1
Spore isolation for P. capsici: Three to five days prior to the assay a 2-3 week old V8 (17%)+CaCO3 (3 g/L)+20 g agar plate was removed from a dark 25° C. incubator and cut up into small chunks. One plate was separated into two deep well plates and rinsed with sterile distilled water three times. The cut up pieces were incubated under light in a sterile filter hood with 25 ml of sterile distilled water. On the day of the assay the water was removed and 5-7 ml of fresh sterile distilled water was added. One plate was incubated at 4° C. for 45-60 minutes and then placed at room temperature for about 45-60 minutes. The spores were collected in a sterile filter bowl containing a fluted piece of filter paper. The spores were vortexed in a conical tube for 30-60 seconds to remove the flagella of the zoospores after isolation.
as §2, §3, §4

[2] = tested on: Collectotrichum graminicola; test: Fungal growth inhibition assay, Collectotrichum graminicola; type: cell-based; conditions: Colletotrichum graminicola, 48 hours, read-out: C. graminicola % growth inhibition at 48 hours
Protocol: as §1
Spore isolation for C. graminicola: A 1-2 week old oatmeal agar (pre-mix) plate was removed from 26° C. incubator with a light/dark 12 hour cycle and the mycelia were treated with 10-15 ml of filter sterilized distilled water. The mycelia were scraped to re-suspend the spores. The spores were then collected in a sterile filter bowl containing a piece of sterile cheesecloth and poured into a conical tube.
as §2, §3, §4

Saccharomyces cerevisiae = test: Yeast growth inhibition assay; type: cell-based; conditions: for inhibition at 3.7 µM: read-out: S. cerevisiae % growth inhibition at 48 hours, 3.7 μM; for inhibition at 11.1 µM: read-out: S. cerevisiae % growth inhibition at 48 hours, 11.1 μM; for inhibition at 33.3 µM: read-out: S. cerevisiae % growth inhibition at 48 hours, 33.3 μM; for inhibition at 100 µM: read-out: S. cerevisiae % growth inhibition at 48 hours, 100 μM
Protocol: Yeast cells (Ade2 strain) were grown in liquid YPD (1% yeast extract, 2% peptone, 2% dextrose) for 16 hours at 30° C. from previously sub-cultured plates of Saccharomyces cerevisiae. The OD600 of the overnight culture was checked via spectrophotometer and diluted to a concentration of 2×10^4 cells/ml.
Chemistry stocks were dissolved in DMSO to a concentration of 10 mM. Chemistry stocks were further diluted in a 96-well stock plate to obtain final concentrations of 100, 33, 10 and 1 μM in 1% DMSO. The final concentrations of the soraphen positive controls were 400, 40, and 3.2 nM. The negative controls on each plate included a background subtraction control containing yeast and 1% DMSO (without chemistry) and a second contamination control containing YPD (with no yeast) and 1% DMSO (without chemistry).
98 μl liquid YPD was added to 2 μl diluted stock of DMSO per well and mixed thoroughly. After mixing, 100 μl of the diluted yeast solution was added to bring the final yeast concentration to 1×10^4 cells/ml or 2000 cells per well. An initial spectrophotometric reading at OD600 was conducted on the entire plate and served as the 0 hour time point used to subtract any background. […] […] […] All experiments were conducted in triplicate. Averages were reported along with standard deviation calculation to generate error bars. Each plate contained its own controls and consisted of inoculated+DMSO, non-inoculated+DMSO, and a titration series of soraphen at 400, 40, and 3.2 nM.

[3] = Table 1A, values marked a are a result of two or more experiments, read-out: ACCase Inhibitory Activity IC50

How did the inhibition at 2 ppm (Botrytis cinerea; 2 ppm) turn out when `COc1ccc(-c2cc(-c3ccc[s+]3[O-])nc(OC(C(=O)O)c3ccccc3)c2C#N)cc1` (stereo not shown) [Formula Ia-xxviii, 2-((3-cyano-4-(4-methoxyphenyl)-6-(1-oxidothiophen-2-yl)pyridin-2-yl)oxy)-2-phenylacetic acid] was run?
The inhibition at 2 ppm was 14%.

And the inhibition at 10 ppm (Botrytis cinerea; 10 ppm)?
Its inhibition at 10 ppm is 27%.

What about the IC50 [1, 3] of the same compound?
Its IC50 is 196 nM.

What does the source list for `COc1ccc(-c2cc(C(F)(F)F)c(C#N)c(SC(C(=O)O)c3ccccc3)n2)cc1OC` (stereo not shown) [Formula Ia-ix, 2-((3-cyano-6-(3,4-dimethoxyphenyl)-4-(trifluoromethyl)pyridin-2-yl)thio)-2-phenylacetic acid]?
inhibition at 2 ppm (Diplodia maydis): 32%; inhibition at 10 ppm (Diplodia maydis): 37%; inhibition at 50 ppm (Diplodia maydis): 70%; IC50 [1, 3]: 1600 nM; inhibition at 2 ppm (Phytophthora capsici): 10%; inhibition at 10 ppm (Phytophthora capsici): 39%; inhibition at 50 ppm (Phytophthora capsici): 34%; inhibition at 2 ppm [2]: 5%; inhibition at 10 ppm [2]: 17%; inhibition at 50 ppm [2]: 72%

Which results are given for `N#Cc1c(SC(C(=O)O)c2ccccc2)nc2c(c1-c1cccs1)CCCC2` (stereo not shown) [Formula Ia-xiii, 2-((3-cyano-4-(thiophen-2-yl)-5,6,7,8-tetrahydroquinolin-2-yl)thio)-2-phenylacetic acid]?
inhibition at 2 ppm (Diplodia maydis): 20%; inhibition at 10 ppm (Diplodia maydis): 13%; inhibition at 50 ppm (Diplodia maydis): 40%; IC50 [1, 3]: 274 nM

`COc1ccc(-c2cc(C(F)(F)F)c(C#N)c(SC(C(=O)O)c3ccccc3)n2)c(OC)c1` (stereo not shown) [Formula Ia-viii, 2-((3-cyano-6-(2,4-dimethoxyphenyl)-4-(trifluoromethyl)pyridin-2-yl)thio)-2-phenylacetic acid] was tested. Which inhibition at 3.7 µM (Saccharomyces cerevisiae) did it give?
Its inhibition at 3.7 µM is 6%.

And the inhibition at 11.1 µM (Saccharomyces cerevisiae)?
The inhibition at 11.1 µM was 23%.

What about the inhibition at 33.3 µM (Saccharomyces cerevisiae) of the same compound?
Its inhibition at 33.3 µM is 62%.

And the inhibition at 100 µM (Saccharomyces cerevisiae)?
The inhibition at 100 µM was 100%.

What about the IC50 [1, 3] of the same compound?
The IC50 was 1720 nM.

Which inhibition at 2 ppm (Diplodia maydis) does the source give for `N#Cc1c(-c2ccc(Cl)cc2)cc(-c2cccs2)nc1SC(C(=O)O)c1ccccc1` (stereo not shown) [Formula Ia-i, 2-((4-(4-chlorophenyl)-3-cyano-6-(thiophen-2-yl)pyridin-2-yl)thio)-2-phenylacetic acid] here?
Its inhibition at 2 ppm is 3%.

What about the inhibition at 10 ppm (Diplodia maydis) of the same compound?
Its inhibition at 10 ppm is 57%.

And the inhibition at 50 ppm (Diplodia maydis)?
The inhibition at 50 ppm was 65%.

And the IC50 [1, 3]?
The IC50 was 370 nM.

And the inhibition at 2 ppm [2]?
The inhibition at 2 ppm was 28%.

And the inhibition at 10 ppm [2]?
Its inhibition at 10 ppm is 72%.

And the inhibition at 50 ppm [2]?
The inhibition at 50 ppm was 92%.

`COc1ccc(-c2cc(-c3cccs3)nc(SC(C(=O)O)c3ccccc3)c2C#N)cc1` (stereo not shown) [Formula Ia-v, 2-((3-cyano-4-(4-methoxyphenyl)-6-(thiophen-2-yl)pyridin-2-yl)thio)-2-phenylacetic acid] was tested. Which inhibition at 2 ppm (Diplodia maydis) did it give?
The inhibition at 2 ppm was 0%.

What about the inhibition at 10 ppm (Diplodia maydis) of the same compound?
The inhibition at 10 ppm was 61%.

And the inhibition at 50 ppm (Diplodia maydis)?
The inhibition at 50 ppm was 52%.

And the IC50 [1, 3]?
Its IC50 is 119 nM.

What about the inhibition at 2 ppm [2] of the same compound?
Its inhibition at 2 ppm is 0%.

What about the inhibition at 10 ppm [2] of the same compound?
Its inhibition at 10 ppm is 32%.

And the inhibition at 50 ppm [2]?
Its inhibition at 50 ppm is 79%.

What does the source list for `N#Cc1c(-c2ccccc2)cc(-c2cccs2)nc1SC(C(=O)O)c1ccccc1` (stereo not shown) [Formula Ia-iv, 2-((3-cyano-4-phenyl-6-(thiophen-2-yl)pyridin-2-yl)thio)-2-phenylacetic acid]?
IC50 [1, 3]: 492 nM; inhibition at 2 ppm (Phytophthora capsici): 0%; inhibition at 10 ppm (Phytophthora capsici): 11%; inhibition at 50 ppm (Phytophthora capsici): 90%; inhibition at 2 ppm [2]: 5%; inhibition at 10 ppm [2]: 41%; inhibition at 50 ppm [2]: 76%

For `N#Cc1c(C(F)(F)F)cc(-c2cccs2)nc1SC(C(=O)O)c1ccccc1` (racemic) [Formula Ia-ii, 2-((3-cyano-6-(thiophen-2-yl)-4-(trifluoromethyl)pyridin-2-yl)thio)-2-phenylacetic acid], which inhibition at 3.7 µM (Saccharomyces cerevisiae) is on record?
The inhibition at 3.7 µM was 7%.

What about the inhibition at 11.1 µM (Saccharomyces cerevisiae) of the same compound?
The inhibition at 11.1 µM was 0%.

And the inhibition at 33.3 µM (Saccharomyces cerevisiae)?
The inhibition at 33.3 µM was 12%.

And the inhibition at 100 µM (Saccharomyces cerevisiae)?
The inhibition at 100 µM was 51%.

And the IC50 ([1]; Table 1B, racemate vs single enantiomers, read-out: ACCase Inhibitory Activity of Racemic Mixtures and Single Enantiomers IC50)?
Its IC50 is 2020 nM.

`N#Cc1c(SC(C(=O)O)c2ccccc2)nc(-c2cccs2)c2c1CCCC2` (stereo not shown) [Formula Ia-vii, 2-((4-cyano-1-(thiophen-2-yl)-5,6,7,8-tetrahydroisoquinolin-3-yl)thio)-2-phenylacetic acid] was tested. Which inhibition at 2 ppm (Diplodia maydis) did it give?
The inhibition at 2 ppm was 11%.

And the inhibition at 10 ppm (Diplodia maydis)?
The inhibition at 10 ppm was 46%.

What about the inhibition at 50 ppm (Diplodia maydis) of the same compound?
The inhibition at 50 ppm was 64%.

What about the IC50 [1, 3] of the same compound?
The IC50 was 3800 nM.

What about the inhibition at 2 ppm (Phytophthora capsici) of the same compound?
The inhibition at 2 ppm was 0%.

And the inhibition at 10 ppm (Phytophthora capsici)?
The inhibition at 10 ppm was 9%.

And the inhibition at 50 ppm (Phytophthora capsici)?
The inhibition at 50 ppm was 100%.

And the inhibition at 2 ppm [2]?
The inhibition at 2 ppm was 11%.

And the inhibition at 10 ppm [2]?
The inhibition at 10 ppm was 19%.

What about the inhibition at 50 ppm [2] of the same compound?
The inhibition at 50 ppm was 71%.
